According to article PMC11859726, “HDAC/σ1R Dual-Ligand as a Targeted Melanoma Therapeutic” (Pharmaceuticals, 2025):

Experiments:
UM 92-1 cells [1] = assay: Cell proliferation, UM 92-1 cells; format: cell-based, human; conditions: UM 92-1 cells; 3c 30 and 100 nM; pentazocine 2 μM; AC927 2 μM; Figure 3a
Experimental: (§1) Cells were seeded in 96-well plates at a cell-specific density, following quantification of cell numbers on counting chambers after trypsinization and staining with trypan blue. After seeding (72 h), at a cell confluence of ~50%, the medium was removed, and treatments were started with fresh media. Treatments, carried out in quadruplicate, lasted for 48 h. Then, the cells were fixed with 4% paraformaldehyde in PBS for 20 min and, after washing, stained with either 1% crystal violet in water or an acridine orange solution (50 µg/mL) for an additional 20 min. At the end of the incubations, cells were washed (3 times) with 100 μL/well of bidistilled water. Finally, for crystal violet assays, 100 μL of 10% acetic acid was added to each well, and the absorbance (λ = 590 nm) was measured with a Synergy HTX Bioteck spectrophotometer (BioSPX, Beersel, Belgium). For acridine orange assays, cell staining was evaluated by measuring the fluorescence (excitation 485/20 nm, emission 528/20 nm) with the Synergy HTX Bioteck reader.

A375 cells = assay: Cell proliferation, CM A375 cells; format: cell-based, human; conditions: CM A375 cells; 3c 90 and 200 nM; pentazocine 2 μM; AC927 2 μM; Figure 3b
Experimental: as §1

endothelial C166 cells = assay: Tube formation assay, VEGF-A-stimulated endothelial cells; format: cell-based, mouse; conditions: for effect on VEGF-A-stimulated angiogenesis (tube lengths, mesh areas, node numbers; words): 5 µM, 3 h, VEGF-A 80 ng/mL
Experimental: The tube formation assay using mouse endothelial […] cells was analyzed employing Matrigel (BD, Bedford, MA, USA), as previously described. Briefly, 96-well plates coated with Matrigel (50 μL/well) were filled with 100 μL medium/well and maintained overnight. Endothelial cells were seeded at 2.5 × 10^4 cells/well and incubated (for 3 h) with VEGF-A (80 ng/mL), in the presence of the indicated treatments. Then, capillary-like structures were imaged (×4 magnification) with a CCD camera connected with an inverted EVOS microscope. Finally, ImageJ software (NIH, Bethesda, MD, USA) was employed to quantify tube formations.

MCF7 cells = assay: Tumor cell spreading assay, MCF7 cells; format: cell-based, human; conditions: 100 nM, 1 h; for inhibition of cell spreading: MCF7 cells (low σ1R); for cells flat, with protrusions, Exp 1 (%) / cells flat, with protrusions, Exp 2 (%) / cells flat, with protrusions, Exp 3 (%) / rounded cells, Exp 1 (%) / rounded cells, Exp 2 (%) / rounded cells, Exp 3 (%): MCF-7, % of total cell population
Experimental: (§2) Adherent 92-1 and MCF-7 cells were harvested using 0.05% Trypsin-EDTA and plated in 6-well plates. After 1 h incubations with the indicated treatments, the number of cells that formed, or not, distinct protrusions (lamellipodia, filopodia) were scored with an inverted microscope (20×, EVOS cell imaging system, Thermo Fisher, Waltham, MA, USA).

UM 92-1 cells [2] = assay: Tumor cell spreading assay, 92-1 cells; format: cell-based, human; conditions: 1 h; for cells flat, with protrusions, Exp 1 (%) / cells flat, with protrusions, Exp 2 (%) / cells flat, with protrusions, Exp 3 (%) / rounded cells, Exp 1 (%) / rounded cells, Exp 2 (%) / rounded cells, Exp 3 (%): 92-1, % of total cell population; for inhibition of cell spreading: UM 92-1 cells, from 100 nM
Experimental: as §2

σ1R = target: T1, σ1R (Cavia porcellus, UniProt Q60492); assay: σ1R radioligand binding assay ([3H]-(+)-pentazocine); design: species or system guinea pig
T1 construct: using guinea pig brain membranes and appropriate radioligands; from tissue; host or cells: guinea pig brain membranes
Experimental: (§3) Radioactivity was determined with a Beckman LS6500 scintillation counter. Inhibition constants (Ki values) were calculated with the EBDA/LIGAND program (Elsevier/Biosoft).

σ2R = target: T2, σ2R (Cavia porcellus, UniProt H0V073); assay: σ2R radioligand binding assay ([3H]-DTG); design: species or system guinea pig; conditions: guinea pig brain membranes; mean ± SD; read-out: Ki σ2R
T2 construct: using guinea pig brain membranes and appropriate radioligands; from tissue; host or cells: guinea pig brain membranes
T2 sequence (H0V073 1-176): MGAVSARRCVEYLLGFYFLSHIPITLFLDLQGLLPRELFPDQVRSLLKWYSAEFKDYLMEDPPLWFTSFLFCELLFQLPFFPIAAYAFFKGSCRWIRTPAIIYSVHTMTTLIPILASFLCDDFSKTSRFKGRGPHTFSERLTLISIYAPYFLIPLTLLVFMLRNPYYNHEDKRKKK
Experimental: as §3

T1 sequence (Q60492 whole entry): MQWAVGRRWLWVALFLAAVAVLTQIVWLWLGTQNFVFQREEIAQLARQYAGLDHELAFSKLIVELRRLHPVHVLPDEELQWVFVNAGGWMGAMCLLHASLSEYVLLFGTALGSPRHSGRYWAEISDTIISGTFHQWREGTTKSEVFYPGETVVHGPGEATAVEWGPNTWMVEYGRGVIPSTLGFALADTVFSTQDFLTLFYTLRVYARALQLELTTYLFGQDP

Row | Compound | effect on proliferation (UM 92-1 cells [1]) | effect on proliferation (A375 cells) | effect on VEGF-A-stimulated angiogenesis (tube lengths, mesh areas, node numbers; words) (endothelial C166 cells) | inhibition of cell spreading (MCF7 cells) | cells flat, with protrusions, Exp 1 (%) (MCF7 cells) | cells flat, with protrusions, Exp 2 (%) (MCF7 cells) | cells flat, with protrusions, Exp 3 (%) (MCF7 cells) | rounded cells, Exp 1 (%) (MCF7 cells) | rounded cells, Exp 2 (%) (MCF7 cells) | rounded cells, Exp 3 (%) (MCF7 cells) | cells flat, with protrusions, Exp 1 (%) (UM 92-1 cells [2]; 100 nM) | cells flat, with protrusions, Exp 2 (%) (UM 92-1 cells [2]; 100 nM) | cells flat, with protrusions, Exp 3 (%) (UM 92-1 cells [2]; 100 nM) | rounded cells, Exp 1 (%) (UM 92-1 cells [2]; 100 nM) | rounded cells, Exp 2 (%) (UM 92-1 cells [2]; 100 nM) | rounded cells, Exp 3 (%) (UM 92-1 cells [2]; 100 nM) | cells flat, with protrusions, Exp 2 (%) (UM 92-1 cells [2]; 5 µM) | cells flat, with protrusions, Exp 3 (%) (UM 92-1 cells [2]; 5 µM) | rounded cells, Exp 2 (%) (UM 92-1 cells [2]; 5 µM) | rounded cells, Exp 3 (%) (UM 92-1 cells [2]; 5 µM) | other results
1 | CC(C)=CCN1CCC2(C)c3cc(O)ccc3CC1C2C (stereo not drawn) [PTZ, pentazocine, reference compound] | did not alter | did not alter |  |  |  |  |  |  |  |  |  |  |  |  |  |  |  |  |  |  | 
2 | CCCC(CCC)C(=O)O[C@@H](CCCN1CCC(O)(c2ccc(Cl)cc2)CC1)c1ccc(F)cc1 [(-)-1, reference compound] |  |  | significantly inhibited | unable to significantly inhibit | 45,95% | 48,03% | 40,28% | 54,05% | 51,97% | 59,72% | 33,84% | 21,33% | 34,97% | 66,16% | 78,67% | 65,03% | 13,49% | 26,09% | 86,51% | 73,91% | antiangiogenic effect in the presence of pentazocine (endothelial C166 cells; 5 µM plus σ1R agonist pentazocine 2 μM, combined score): partially and equally blocked; antiangiogenic effect in the presence of AC927 (endothelial C166 cells; 5 µM plus σ2R antagonist AC927 2 μM, combined score): partially and equally blocked; inhibition of cell spreading (UM 92-1 cells [2]): reduced UM cell spreading with seemingly higher potencies
3 | COC(=O)/C=C/c1ccc(CN2CCC(O)(c3ccc(Cl)cc3)CC2)cc1 [3c, Metil-(E)-3-(4-{[4-(4-clorofenil)-4-idrossipiperidin-1-il]methyl}phenyl)acrylate] | loss of activity | loss of activity | mimicked the effects of 5c | unable to significantly inhibit | 49,37% | 50,89% | 46,27% | 50,63% | 49,11% | 53,73% | 36,01% | 25,21% | 33,92% | 63,99% | 74,79% | 66,08% | 18,28% | 39,44% | 81,72% | 60,56% | cells flat, with protrusions, Exp 1 (%) (UM 92-1 cells [2]; 5 µM): 45,38%; rounded cells, Exp 1 (%) (UM 92-1 cells [2]; 5 µM): 54,62%; inhibition of cell spreading (UM 92-1 cells [2]): significantly suppressed; Ki (σ1R): 28 ± 4.4 nM; Ki (σ2R): 1330 ± 286 nM
